Experimental data: publication PMC5095173, “Disulfide-activated protein kinase G Iα regulates cardiac diastolic relaxation and fine-tunes the Frank–Starling response” (Nature Communications, 2016)
Where no end group is shown, it is not given here. [ ]: non-standard residue; d: D form. pT = C[C@@H](OP(=O)(O)O)[C@H](N)C(=O)O; Met(O) = CS(=O)CC[C@H](N)C(=O)O; pS = N[C@@H](COP(=O)(O)O)C(=O)O

Key:
[1] = test system: PKGIα (analogue-sensitive C42S/M438G), cGMP-activated; assay: Chemical genetic phosphoproteomic screen, cGMP-activated PKGIα C42S/M438G versus unactivated control; assay type: biochemical, human PKGIα; substrates in rat heart homogenate; conditions: for log2 fold change cGMP vs Control: control = PKGIα C42S/M438G; for log2 fold changes: Group 1 (cGMP-activated) vs Group 3 (control); for Log2 fold change in phosphorylation, cGMP versus control: PKGIα C42S/M438G + 100 μM cGMP vs basal, 1 h, 30 °C, pH 7.5, rat heart homogenate, label-free LC–MS/MS, n=4, * P<0.05 Dunnett: all values except phospholamban S16
Text: (§1) We employed a chemical genetic method[18] to identify direct substrates of cGMP-activated PKGIα and disulfide bond-activated PKGIα in heart tissue. This method involves mutation of the ATP binding-site of the kinase of interest so that it can accept a ‘bulky' N6-alkylated ATP analogue for example, N6^−phenylethyl ATP. An oxygen atom on the γ phosphate is also replaced with a sulfur atom—giving an N6-alkylated ATPγS analogue—so that the mutant kinase catalyses the transfer of a thiophosphate group (–PO3S^3−) to its substrates instead of a phosphate. The thiophosphate group is nucleophilic, providing a basis for substrates of the analogue-sensitive kinase to be purified by a ‘covalent capture' protocol. LC–MS/MS allows identification of the substrate and localization of the phosphorylation site. Thiophosphorylated proteins can also be detected with a thiophosphate ester-specific antibody. Analogue-sensitive mutants of PKGIα and PKGIα C42S (which cannot form the activating intermolecular disulfide bond) were generated by mutating Met438 in the ATP-binding domain to Gly. This mutation was chosen based on a previous study where an analogue-sensitive mutant of the catalytic subunit of PKA—which shares sequence homology with PKGIα—was engineered. Detailed protocols are given below.
(§2) A pCDNA3 expression vector encoding human FLAG-tagged PKGIα (ref. [41]) underwent site-directed mutagenesis to generate constructs for untagged WT, C42S, M438G and C42S/M438G PKGIα. Mutations were introduced using the QuikChange II Site-Directed Mutagenesis Kit (Agilent) according to the manufacturer's instructions. Expression and purification of the PKGIα mutants was performed according to a published method[42] as follows: suspension FreeStyle 293-F cells (ThermoFisher Scientific) were transfected with the appropriate PKGIα construct using the stable cationic polymer polyethyleneimine (PEI) as a transfection reagent. After ∼72 h cells were harvested by centrifugation (400g; room temperature; 15 min), re-suspended in ice cold lysis buffer (25 mM sodium phosphate buffer pH 6.8; 10 mM ethylenediaminetetraacetic acid (EDTA); 100 mM NaCl; 10 mM benzamidine hydrochloride; and 10 mM dithiothreitol (DTT)) and frozen in liquid N2. Cells were lysed by three freeze (liquid N2)-thaw (37 °C) cycles and the lysate was clarified by centrifugation at 140,000g and 4 °C for 30 min. The soluble protein fraction was loaded onto a pre-equilibrated 8-(2-aminoethylamino)adenosine-3′, 5′-cyclic monophosphate column (8-AEA-cAMP agarose; BioLog, Germany) followed by washing with 20 column volumes of lysis buffer. The column was further washed with lysis buffer +3 M NaCl (5 column volumes) and PKGIα was then eluted with lysis buffer +150 mM NaCl and 500 μM cAMP. Removal of cAMP and buffer exchange was achieved by extensive dialysis against 25 mM sodium phosphate buffer pH 6.8, 2 mM EDTA and 100 mM NaCl. For ITC analysis, WT PKGIα was incubated with 10 mM lipoic acid for 2 h on ice to obtain ∼100% disulfide dimer (confirmed by SDS-PAGE). Oxidized WT or C42S PKGIα was further purified by size exclusion chromatography using a HiLoad 16/600 Superdex 200 pg column (GE Healthcare) with 50 mM sodium phosphate buffer pH 7.4 and 100 mM NaCl. Proteins were concentrated using Amicon Ultra centrifugal filter devices (Merck Millipore). DTT was absent in storage buffers so that the activating disulfide bond would not be reduced and so that the PKGIα M438G mutant would be oxidized to disulfide dimer in the presence of air (confirmed by SDS-PAGE). Protein concentration was determined by Pierce BCA assay (ThermoFisher) and enzyme activity was confirmed using the Omnia kinase assay kit (ThermoFisher).
(§3) Male Wistar rats (9–10 weeks; body weight 300–330 g) were euthanized by intraperitoneal injection of sodium pentobarbitone (200 mg kg^−1) with heparin (500 USP units). […]

[2] = test system: PKGIα (analogue-sensitive M438G), disulfide-activated; assay: Chemical genetic phosphoproteomic screen, disulfide-activated PKGIα M438G versus unactivated control; assay type: biochemical, human PKGIα; substrates in rat heart homogenate; conditions: for log2 fold change Disulfide vs Control: control = PKGIα C42S/M438G; for log2 fold changes: Group 2 (disulfide-activated) vs Group 3 (control); for Log2 fold change in phosphorylation, Disulfide versus control: disulfide-activated PKGIα M438G vs basal, 1 h, 30 °C, pH 7.5, rat heart homogenate, label-free LC–MS/MS, * P<0.05 Dunnett: only phospholamban S16
Text: as §1, §2, §3

[3] = test system: PKGIα disulfide dimer; conditions: HEK cells, murine aortic rings or mesenteric blood vessels; ref Burgoyne et al. Hypertension 60, 1301-1308 (2012); Rudyk et al. Circulation 126, 287-295 (2012); cited from earlier work
[4] = test system: PKGIα (VASP phosphorylation) in mouse embryonic fibroblasts; conditions: ref Muller et al. Free Radic Biol Med 53, 1574-1583 (2012); cited from earlier work
Text: This transgenic model was developed by the Sadoshima lab (Newark, USA) and the data are included in a PhD thesis (2015) by Daniel Stubbert from this lab. We have amended the manuscript so that it now states that the ...

[5] = test system: PLN threonine 17; conditions: cardiac myocytes exposed to hydrogen peroxide; no reference given; cited from earlier work

Molecule | log2 fold change cGMP vs Control [1] | log2 fold change Disulfide vs Control [2] | other results
Trmt10c pT377 (RKH[pT]GYLEVPEHSQAAFR) | 1.984 | 0.4487 | 
Speg pS2019 |  |  | log2 fold changes [1]: 1.632; log2 fold changes [2]: 1.452
Map1a pS460 | 2.406 | 0.5914 | 
Ryr2 pS2798 (RISQTSQVSIDAAHGYSPR; also: phosphoserine (pS2798), site in peptide not given here) |  |  | log2 fold changes [1]: 1.758; log2 fold changes [2]: -0.1315
Troponin I, cardiac muscle: PKGIα substrate, phospho site S167 |  |  | Log2 fold change in phosphorylation, cGMP versus control [1]: 3.49*; Log2 fold change in phosphorylation, Disulfide versus control ([2]; n=4): 1.65
Speg pS2410 |  |  | log2 fold changes [1]: -0.7401; log2 fold changes [2]: -0.1096
Protein SET: PKGIα substrate, phospho site S7 |  |  | Log2 fold change in phosphorylation, cGMP versus control [1]: 3.80*; Log2 fold change in phosphorylation, Disulfide versus control ([2]; n=4): 1.76
CAP-Gly domain-containing linker protein 2: PKGIα substrate, phospho site S353 |  |  | Log2 fold change in phosphorylation, cGMP versus control [1]: 2.05*; Log2 fold change in phosphorylation, Disulfide versus control ([2]; n=4): 0.98
Stmn1 pS31 (SKESVPEFPLSPPK; also: phosphoserine pS31, several Ser, place not given here) |  |  | log2 fold changes [1]: 4.264; log2 fold changes [2]: 0.3093
E3 ubiquitin-protein ligase TRIP12: PKGIα substrate, phospho site S1073 |  |  | Log2 fold change in phosphorylation, cGMP versus control [1]: 1.63*; Log2 fold change in phosphorylation, Disulfide versus control ([2]; n=4): 0.66
CC(=O)OC[C@H]1O[C@@H]([S-])[C@H](OC(C)=O)[C@@H](OC(C)=O)[C@@H]1OC(C)=O.CCP(CC)CC.[Au+] [auranofin] |  |  | PKGIα disulfide dimer upon treatment [3]: accumulation of PKGIα disulfide dimer
Limd1 pS303 | 2.801 | 2.11 | 
Speg pS2135 |  |  | log2 fold changes [1]: 4.01; log2 fold changes [2]: 1.764
Rnf123 pS690 (FLSTAAVSL[Met(O)]TPR; also: phosphoserine, site not given here) | 3.971 | -1.634 | 
Mrps31 pS191 (RVSFTQIISNMK; also: phosphoserine (pS191), site in peptide not given here) | 0.6921 | 0.1676 | 
OO [hydrogen peroxide] |  |  | effect of pre-oxidation of PKGIα on its activation by cGMP [4]: slightly attenuated; PLN threonine 17 phosphorylation [5]: will become phosphorylated
Snx17 pS437 (LSSKLSAVSLR; also: phosphoserine pS437, several Ser, place not given here) |  |  | log2 fold changes [1]: 3.5; log2 fold changes [2]: 1.271
Mylk3 pS155 (KG[pS]LADGPEENKEQAEVAGVKPK) | 3.16 | 1.131 | 
Wipf1 pS324 (NLSLTSPTPPLPSPGR; also: phosphoserine pS324, several Ser, place not given here) |  |  | log2 fold changes [1]: 2.215; log2 fold changes [2]: -0.2547
Prkcdbp pS199 (KG[pS]EAAQPTPVKPPR) | 1.54 | 1.3478 | 

Molecule | log2 fold change cGMP vs Control [1] | log2 fold change Disulfide vs Control [2] | other results
Mthfd1 pT545 (KITIGQAPTEK; also: phosphothreonine (pT545), site in peptide not given here) | 3.681 | 1.475 | 
Pcnp pS95 (KASAISIR; also: phosphoserine (pS95), site in peptide not given here) | -1.793 | 0.1824 | 
Set pS7 (RQ[pS]AILPQPK) | 3.804 | 1.764 | 
Foxo1 pS270 | 0.9588 | 0.7421 | 
RApSTIEMPQQAR [phosphopeptide from the cardiac protein phospholamban] |  |  | phosphopeptide abundance relative to control, PKGIα activated by Cys42 oxidation ([2]; PLN pSer16, P<0.05, n=4): significantly increased relative to control
Prrc2a pS457 | 0.5056 | 0.2134 | 
Tnni3 pS167 (AKE[pS]LDLR) |  |  | log2 fold changes [1]: 3.492; log2 fold changes [2]: 1.654
Cardiac phospholamban: PKGIα substrate, phospho site S16 (MEKVQYLTRSAIRRA[pS]TIEMPQQARQNLQNLFINFCLILICLLLICIIVMLL; cysteine pairing not given here; UniProt P61016 1-52, looked up) |  |  | Log2 fold change in phosphorylation, cGMP versus control [1]: −0.81; Log2 fold change in phosphorylation, Disulfide versus control ([2]; n=4): 0.41*
Pde4a pS140 (RE[pS]FLYR) | 1.223 | 1.1526 | 
Trip12 pS1073 | 1.63 | 0.661 | 
Tnni3 pS151 |  |  | log2 fold changes [1]: 2.921; log2 fold changes [2]: -0.2077
Olr1571 pS170 (AISSSQGK; also: phosphoserine (pS170), site in peptide not given here) | -4.008 | -1.218 | 
Mybbp1a pS1318 (ARLSLVSR; also: phosphoserine (pS1318), site in peptide not given here) | -0.9192 | -0.09923 | 
Microtubule-associated protein 1A: PKGIα substrate, phospho site S460 |  |  | Log2 fold change in phosphorylation, cGMP versus control [1]: 2.41*; Log2 fold change in phosphorylation, Disulfide versus control ([2]; n=4): 0.59
Nucb2 pS85 (SGRLSQELDLVSHK; also: phosphoserine (pS85), site in peptide not given here) | -1.746 | -0.4443 | 
Mink1 pS997 (KG[pS]VVNVNPTNTR) | 0.5982 | 0.583 | 
Nucb1 pS368 (AQRL[pS]QETEALGR) | 5.775 | 3.208 | 
Sarnp pS138 (GLSSDTKP[Met(O)]VNLDK; also: phosphoserine, site not given here) |  |  | log2 fold changes [1]: 4.118; log2 fold changes [2]: 1.9607
Clip2 pS353 | 2.051 | 0.983 | 
Pln pS16 (RA[pS]TIEMPQQAR; not fully specified (residue 7)) | -0.8119 | 0.4097 | 
